Test results published in US7045653B2, “Pharmaceuticals” (Pfizer, Inc., priority 2003, dated 2006).

How the values were obtained:
[1] = target: T1, NEP (EC.3.4.24.11) from human kidney (Homo sapiens, UniProt P08473); test: IC50 against NEP; assay type: biochemical
T1 construct: determined using NEP (EC.3.4.24.11) from human kidney; from tissue; host or cells: human kidney
Method: IC50 values of the compounds of the invention against NEP and ACE were determined using methods described in published patent application EP1097719-A1, paragraphs [0368] to [0376]. The IC50 values presented below were determined using NEP (EC.3.4.24.11) from human kidney.

[2] = tested on: hypertensive rats; settings: cited from earlier work
[3] = tested on: patients with essential hypertension; settings: 24 black patients with essential hypertension; cited from earlier work
[4] = tested on: hypertensive patients; settings: added to the ACE inhibitor lisinopril; 37 hypertensive patients; cited from earlier work

T1 sequence (P08473 whole entry): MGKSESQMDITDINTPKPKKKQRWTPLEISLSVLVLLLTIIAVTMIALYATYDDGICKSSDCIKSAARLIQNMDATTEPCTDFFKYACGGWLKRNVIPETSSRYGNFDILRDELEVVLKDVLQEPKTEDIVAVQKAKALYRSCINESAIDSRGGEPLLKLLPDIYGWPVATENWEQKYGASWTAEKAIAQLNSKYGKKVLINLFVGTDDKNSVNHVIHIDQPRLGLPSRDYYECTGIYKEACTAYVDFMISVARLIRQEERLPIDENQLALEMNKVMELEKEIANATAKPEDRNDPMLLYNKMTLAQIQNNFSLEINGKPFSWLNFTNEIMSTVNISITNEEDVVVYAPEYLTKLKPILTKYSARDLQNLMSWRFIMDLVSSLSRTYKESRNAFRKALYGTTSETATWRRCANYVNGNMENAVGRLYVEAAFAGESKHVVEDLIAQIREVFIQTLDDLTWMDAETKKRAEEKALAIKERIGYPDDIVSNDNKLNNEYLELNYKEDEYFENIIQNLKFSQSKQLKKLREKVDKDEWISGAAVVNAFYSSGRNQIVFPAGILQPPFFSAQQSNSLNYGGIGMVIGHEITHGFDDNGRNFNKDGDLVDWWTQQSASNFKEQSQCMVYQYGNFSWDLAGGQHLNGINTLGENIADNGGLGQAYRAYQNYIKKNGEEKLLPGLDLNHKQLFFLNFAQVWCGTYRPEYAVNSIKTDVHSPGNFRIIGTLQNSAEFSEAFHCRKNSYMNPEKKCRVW

| SMILES | IC50 [1] | other results |
| --- | --- | --- |
| CCC[C@H](CC1(C(=O)N[C@@H](CCOc2ccc(Cl)cc2)CC(=O)O)CCCC1)C(=O)O [Example 41, (3S)-3-[({1-[(2R)-2-Carboxypentyl]cyclopentyl}carbonyl)amino]-5-(4-chlorophenoxy)pentanoic Acid] | 6.3 nM | – |
| COCCOC[C@H](CC1(C(=O)N[C@H]2CC[C@@H](C(=O)O)CC2)CCCC1)C(=O)O [candoxatrilat] | – | systolic blood pressure [2]: lowers systolic blood pressure |
| CC1(C)OCC(COC(=O)C(Cc2ccccc2)N[C@@H](Cc2ccccc2)C(=O)NCCC(=O)O)O1 (some centres unmarked) [SCH34826] | – | supine blood pressure [3]: significantly lowered supine blood pressure |
| COCCOC[C@H](CC1(C(=O)N[C@H]2CC[C@@H](C(=O)O)CC2)CCCC1)C(=O)Oc1ccc2c(c1)CCC2 [candoxatril] | – | supine and erect blood pressure [4]: marked reduction in both supine and erect blood pressure |

Second part, led by results:

| IC50 [1] | SMILES | other results |
| --- | --- | --- |
| 8.2 nM | COCC[C@H](CC1(C(=O)N[C@@H](COCc2ccc(Cl)cc2)CC(=O)O)CCCC1)C(=O)O [Example 16, (2S)-2-[(1-{[((1R)-2-Carboxy-1-{[(4-chlorobenzyl)oxy]methyl}ethyl)amino]-carbonyl}cyclopentyl)methyl]-4-methoxybutanoic Acid] | – |
| 2.4 nM | COCC[C@H](CC1(C(=O)N[C@@H](CCOc2ccc(Cl)cc2)CC(=O)O)CCCC1)C(=O)O [Example 48, (3S)-3-[({1-[(2S)-2-Carboxy-4-methoxybutyl]cyclopentyl}carbonyl)amino]-5-(4-chlorophenoxy)pentanoic Acid] | – |
| 0.7 nM | COCC[C@H](CC1(C(=O)N[C@@H](CCCc2ccc(Cl)cc2)CC(=O)O)CCCC1)C(=O)O [Example 53, (3S)-3-[({1-[(2S)-2-carboxy-4-methoxybutyl]cyclopentyl}carbonyl)amino]-6-(4-chlorophenyl)hexanoic Acid] | – |
| 4.7 nM | COCC[C@H](CC1(C(=O)N[C@@H](CCCc2ccc(OC)cc2)CC(=O)O)CCCC1)C(=O)O [Example 54, (3S)-3-[({1-[(2S)-2-carboxy-4-methoxybutyl]cyclopentyl}carbonyl)amino]-6-(4-methoxyphenyl)hexanoic Acid] | – |
